Data published in ChEMBL document CHEMBL1121683, “Novel synthesis of (S)-1-[5-(benzoylamino)-1,4-dioxo-6-phenylhexyl]-L-proline and analogues: potent angiotensin converting enzyme inhibitors” (J Med Chem, 1981).

How the values were obtained:
Rattus norvegicus [1] = experiment: Change in mean aortic blood pressure in the conscious renal hypertensive rat after oral administration of 30 mg/kg; type: functional, Artery
Rattus norvegicus [2] = experiment: Maximum effect of 30 mg/kg administered orally on mean aortic blood pressure in the conscious renal hypertensive rat; type: functional, Artery; conditions: route oral
Rattus norvegicus [3] = experiment: Maximum inhibition of the angiotensin I challenge at 30mg/kg, po in conscious, normotensive rats; type: functional
Rattus norvegicus [4] = experiment: Time required after administration of 30 mg/kg of compound po, for the AI response to return to 70% of the pretreatment control response; type: functional
Rattus norvegicus [5] = experiment: Time required after administration of 3 mg/kg of compound iv, for the AI response to return to 70% of the pretreatment control response; type: functional
Rattus norvegicus [6] = experiment: Maximum inhibition of the angiotensin I challenge at 3 mg/kg, iv, in conscious, normotensive rats; type: functional
Rattus norvegicus [7] = experiment: Maximum effect of 3 mg/kg of compound administered orally on mean aortic blood pressure in the conscious renal hypertensive rat; type: functional, Artery; conditions: route oral
Rattus norvegicus [8] = experiment: Change in mean aortic blood pressure in the conscious renal hypertensive rat after oral administration of 3 mg/kg; type: functional, Artery
[9] = target: Angiotensin-converting enzyme (Homo sapiens, UniProt P12821); experiment: Concentration required to inhibit the activity of Angiotensin I converting enzyme by 50%; type: protein assay, Cavia porcellus
Chain of Angiotensin-converting enzyme (P12821 whole entry): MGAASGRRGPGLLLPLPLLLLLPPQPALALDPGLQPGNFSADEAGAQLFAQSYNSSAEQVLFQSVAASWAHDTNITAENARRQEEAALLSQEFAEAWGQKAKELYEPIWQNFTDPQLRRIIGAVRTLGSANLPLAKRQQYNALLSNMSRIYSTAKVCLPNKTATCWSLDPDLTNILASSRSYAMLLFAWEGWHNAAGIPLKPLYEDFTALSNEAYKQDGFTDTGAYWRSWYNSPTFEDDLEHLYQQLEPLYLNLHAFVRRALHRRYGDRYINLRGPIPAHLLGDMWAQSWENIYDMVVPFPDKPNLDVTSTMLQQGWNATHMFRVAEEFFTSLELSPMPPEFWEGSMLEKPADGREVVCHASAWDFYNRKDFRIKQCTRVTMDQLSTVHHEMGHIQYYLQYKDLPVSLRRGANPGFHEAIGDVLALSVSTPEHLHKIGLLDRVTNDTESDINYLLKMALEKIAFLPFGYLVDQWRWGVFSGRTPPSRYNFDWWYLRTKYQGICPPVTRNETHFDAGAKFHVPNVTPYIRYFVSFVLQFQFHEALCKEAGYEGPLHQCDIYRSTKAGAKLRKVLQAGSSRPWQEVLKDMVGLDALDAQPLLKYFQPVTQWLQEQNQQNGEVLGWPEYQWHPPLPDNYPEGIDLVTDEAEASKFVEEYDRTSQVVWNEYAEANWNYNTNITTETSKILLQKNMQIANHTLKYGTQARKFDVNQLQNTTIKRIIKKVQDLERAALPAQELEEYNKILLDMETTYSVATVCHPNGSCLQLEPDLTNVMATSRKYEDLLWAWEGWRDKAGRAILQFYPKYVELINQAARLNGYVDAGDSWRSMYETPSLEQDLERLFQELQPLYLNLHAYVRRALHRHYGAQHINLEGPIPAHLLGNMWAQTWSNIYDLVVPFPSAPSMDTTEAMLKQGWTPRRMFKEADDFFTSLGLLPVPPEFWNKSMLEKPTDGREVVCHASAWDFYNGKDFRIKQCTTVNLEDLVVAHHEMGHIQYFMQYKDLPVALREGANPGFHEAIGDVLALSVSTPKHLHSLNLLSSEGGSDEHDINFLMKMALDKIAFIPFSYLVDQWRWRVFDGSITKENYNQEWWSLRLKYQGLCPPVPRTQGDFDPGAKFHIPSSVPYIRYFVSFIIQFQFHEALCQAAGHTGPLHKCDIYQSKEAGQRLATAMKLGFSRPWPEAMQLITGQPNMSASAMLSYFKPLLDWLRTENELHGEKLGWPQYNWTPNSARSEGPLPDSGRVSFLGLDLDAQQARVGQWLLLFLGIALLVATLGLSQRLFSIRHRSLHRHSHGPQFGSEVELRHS

Rattus norvegicus [10] = experiment: Maximum effect of 0.3 mg/kg of compound administered orally on mean aortic blood pressure in the conscious renal hypertensive rat; type: functional, Artery; conditions: route oral
Rattus norvegicus [11] = experiment: Maximum inhibition of the angiotensin I challenge at 0.03 mg/kg, po, in conscious, normotensive rats; type: functional
Rattus norvegicus [12] = experiment: Maximum inhibition of the angiotensin I challenge at 3 mg/kg, po, in conscious, normotensive rats; type: functional
Rattus norvegicus [13] = experiment: Change in mean aortic blood pressure in the conscious renal hypertensive rat after oral administration of 0.3 mg/kg; type: functional, Artery
Rattus norvegicus [14] = experiment: Time required after administration of 3 mg/kg of compound po, for the AI response to return to 70% of the pretreatment control response; type: functional
Rattus norvegicus [15] = experiment: Time required after administration of 0.03 mg/kg of compound po, for the AI response to return to 70% of the pretreatment control response; type: functional
Rattus norvegicus [16] = experiment: Maximum inhibition of the angiotensin I challenge at 0.3 mg/kg, po, in conscious, normotensive rats; type: functional
Rattus norvegicus [17] = experiment: Time required after administration of 0.3 mg/kg of compound po, for the AI response to return to 70% of the pretreatment control response; type: functional

In the case of `O=C(NC(Cc1cccnc1)C(=O)CCC(=O)N1CCC[C@H]1C(=O)OCc1ccccc1)c1ccccc1` (some centres undefined), the Change (Rattus norvegicus [1]) is reported as -32 mmHg and the “Mean aortic blood pressure at maximum effect” value (from here on “Mean aortic blood pressure”) (Rattus norvegicus [2]) is reported as 159 mmHg.
`O=C(NC(Cc1ccccc1)C(=O)CCC(=O)N1CCC[C@H]1C(=O)O)c1ccco1` (some centres undefined) gave a Max inhibition (Rattus norvegicus [3]) of 32%, a Change (Rattus norvegicus [1]) of -1 mmHg and an AI recovery time (Rattus norvegicus [4]) of 84 min. For the same compound, the AI recovery time (Rattus norvegicus [5]) was 52 min, the Max inhibition (Rattus norvegicus [6]) was 84% and the “Mean aortic blood pressure” value (Rattus norvegicus [2]) was 184 mmHg.
For `O=C(NC(Cc1ccccc1)C(=O)CCC(=O)N1CC(O)C[C@H]1C(=O)O)c1ccccc1` (some centres undefined), the Change (Rattus norvegicus [1]) was -20 mmHg and the “Mean aortic blood pressure” value (Rattus norvegicus [2]) was 168 mmHg.
With `O=C(NC(Cc1ccc(OCc2ccccc2)cc1)C(=O)CCC(=O)N1CCC[C@H]1C(=O)O)c1ccccc1` (some centres undefined) the Change (Rattus norvegicus [1]) was -5 mmHg and the “Mean aortic blood pressure” value (Rattus norvegicus [2]) was 195 mmHg.
`CC(=O)NC(Cc1ccccc1)C(=O)CCC(=O)N1CCC[C@H]1C(=O)O` (some centres undefined) was tested, and the Change (Rattus norvegicus [1]) was -26 mmHg and the “Mean aortic blood pressure” value (Rattus norvegicus [2]) was 176 mmHg.
With `Cc1ccccc1C(=O)NC(Cc1ccccc1)C(=O)CCC(=O)N1CCC[C@H]1C(=O)O` (some centres undefined) the Change (Rattus norvegicus [1]) was -15 mmHg and the “Mean aortic blood pressure” value (Rattus norvegicus [2]) was 188 mmHg.
For `O=C(NC(Cc1ccc(O)cc1)C(=O)CCC(=O)N1CCC[C@H]1C(=O)O)c1ccccc1` (some centres undefined), the Max inhibition (Rattus norvegicus [3]) was 46%, the Change (Rattus norvegicus [1]) was -23 mmHg and the AI recovery time (Rattus norvegicus [4]) was 24 min. The AI recovery time (Rattus norvegicus [5]) was 34 min, the Max inhibition (Rattus norvegicus [6]) was 82% and the “Mean aortic blood pressure” value (Rattus norvegicus [2]) was 172 mmHg.
`COc1ccc(CC(NC(=O)c2ccccc2)C(=O)CCC(=O)N2CCC[C@H]2C(=O)O)cc1OC` (some centres undefined) showed a Max inhibition (Rattus norvegicus [3]) of 33%, a Change (Rattus norvegicus [1]) of -5 mmHg and an AI recovery time (Rattus norvegicus [4]) of 5 min. The AI recovery time (Rattus norvegicus [5]) was 24 min, the Max inhibition (Rattus norvegicus [6]) was 74% and the “Mean aortic blood pressure” value (Rattus norvegicus [2]) was 174 mmHg.
For `O=C(NC(Cc1cccnc1)C(=O)CCC(=O)N1CCC[C@H]1C(=O)O)c1ccccc1` (some centres undefined), the Change (Rattus norvegicus [1]) was -20 mmHg and the “Mean aortic blood pressure” value (Rattus norvegicus [2]) was 184 mmHg.
With `Cc1ccccc1C(=O)NC(Cc1ccccc1)C(=O)CCC(=O)N1CCC[C@H]1C(=O)OCc1ccccc1` (some centres undefined) the Change (Rattus norvegicus [1]) was -20 mmHg and the “Mean aortic blood pressure” value (Rattus norvegicus [2]) was 175 mmHg.
With `O=C(NC(Cc1ccccc1)C(=O)CCC(=O)N1CCC[C@H]1C(=O)O)OCc1ccccc1` (some centres undefined) the Change (Rattus norvegicus [1]) was -22 mmHg and the “Mean aortic blood pressure” value (Rattus norvegicus [2]) was 175 mmHg.
For `COC(=O)[C@@H]1CCCN1C(=O)CCC(=O)C(Cc1ccccc1)NC(=O)c1ccccc1` (some centres undefined), the Change (Rattus norvegicus [1]) was -11 mmHg, the Max effect (Rattus norvegicus [7]) was 165 mmHg and the Change (Rattus norvegicus [8]) was -34 mmHg. The “Mean aortic blood pressure” value (Rattus norvegicus [2]) was 142 mmHg.
`O=C(NC(Cc1ccccc1)C(=O)CCC(=O)N1CCCC1)c1ccccc1` (centres undefined) was tested, and the IC50 [9] was “Not Active”.
`O=C(CCC(=O)N1CCC[C@H]1C(=O)O)C(Cc1ccccc1)NC(=O)C1CCCO1` (some centres undefined) showed a Max inhibition (Rattus norvegicus [3]) of 24%, a Change (Rattus norvegicus [1]) of -23 mmHg and an AI recovery time (Rattus norvegicus [4]) of 10 min. For the same compound, the Max inhibition (Rattus norvegicus [6]) was 64% and the “Mean aortic blood pressure” value (Rattus norvegicus [2]) was 163 mmHg.
With `O=C(CCC(=O)C(Cc1ccccc1)NC(=O)c1ccccc1)NC(Cc1ccccc1)C(=O)OCc1ccccc1` (centres undefined) the Change (Rattus norvegicus [1]) was -5 mmHg and the “Mean aortic blood pressure” value (Rattus norvegicus [2]) was 182 mmHg.
For `O=C(N[C@@H](Cc1ccccc1)C(=O)CCC(=O)N1CCC[C@H]1C(=O)O)c1ccccc1`, the Max inhibition (Rattus norvegicus [3]) was 48%, the Change (Rattus norvegicus [1]) was -12 mmHg and the AI recovery time (Rattus norvegicus [4]) was 49 min. For the same compound, the AI recovery time (Rattus norvegicus [5]) was 34 min, the Max inhibition (Rattus norvegicus [6]) was 57% and the “Mean aortic blood pressure” value (Rattus norvegicus [2]) was 178 mmHg.
Work on `C[C@H](CS)C(=O)N1CCC[C@H]1C(=O)O` [CAPTOPRIL] yielded a Max effect (Rattus norvegicus [10]) of 170 mmHg, a Max inhibition (Rattus norvegicus [11]) of 16% and a Max inhibition (Rattus norvegicus [12]) of 95%. The Change (Rattus norvegicus [13]) was -19 mmHg, the Change (Rattus norvegicus [1]) was -101 mmHg and the AI recovery time (Rattus norvegicus [14]) was over 240 min. The AI recovery time (Rattus norvegicus [15]) was 80 min, the Max effect (Rattus norvegicus [7]) was 99 mmHg and the Change (Rattus norvegicus [8]) was -93 mmHg. For the same compound, the “Mean aortic blood pressure” value (Rattus norvegicus [2]) was 85 mmHg, the Max inhibition (Rattus norvegicus [16]) was 69% and the AI recovery time (Rattus norvegicus [17]) was 170 min.
